In ChEMBL document CHEMBL4308917, “Tripeptide analogues of MG132 as protease inhibitors” (Bioorg Med Chem, 2019):
Residues, ends and D or L forms follow the SMILES beside them. *: point of attachment. Cbz = O=C(OCc1ccccc1)*

What was measured:
[1] = Inhibition of recombinant ovine lung calpain-2 protease using BODIPY-FL casein as substrate measured at 30 secs time interval for 30 mins by fluorescence-based assay; parameters: species or system Ovis aries
[2] = Selectivity ratio of IC50 for chymotrypsin like activity of 26S proteasome beta 5 subunit (unknown origin) to IC50 for recombinant ovine lung calpain 2 protease
[3] = biological target: T1, Proteasome Macropain subunit MB1 (Homo sapiens, UniProt P28074); assay: Inhibition of chymotrypsin like activity of 26S proteasome beta 5 subunit (unknown origin) by fluorescence assay
T1 sequence (P28074 whole entry): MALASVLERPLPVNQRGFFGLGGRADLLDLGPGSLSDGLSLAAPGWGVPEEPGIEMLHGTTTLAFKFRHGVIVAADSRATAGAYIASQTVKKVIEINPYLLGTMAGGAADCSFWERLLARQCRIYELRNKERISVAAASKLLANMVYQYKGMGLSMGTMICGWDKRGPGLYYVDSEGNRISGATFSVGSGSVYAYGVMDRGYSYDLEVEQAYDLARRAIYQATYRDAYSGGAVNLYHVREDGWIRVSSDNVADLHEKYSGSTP

Plasmodium falciparum = assay: Antiplasmodial activity against Plasmodium falciparum D10 cultured in human O+ erythrocytes after 50 to 60 hrs by ethidium bromide staining-based flow cytometric analysis; format: functional, organism-based
[4] = Inhibition of recombinant ovine lung calpain-1 protease using BODIPY-FL casein as substrate measured at 30 secs time interval for 30 mins by fluorescence-based assay; parameters: species or system Ovis aries
Ovis aries = species: Ovis aries; assay: Potency index, ratio of MG132 IC50 to test compound IC50 for recombinant ovine lung calpain-2 protease using BODIPY-FL casein as substrate measured at 30 secs time interval for 30 mins by fluorescence-based assay
[5] = biological target: T2, Proteasome Macropain subunit MB1 (Homo sapiens) (UniProt P28074); assay: Ratio of test compound IC50 to MG132 IC50 for chymotrypsin like activity of 26S proteasome beta 5 subunit (unknown origin) by fluorescence assay
T2 sequence (whole entry): T1 sequence (P28074 whole entry)

[6] = biological target: T3, Calpain-2 catalytic subunit (Sus scrofa, UniProt P43367); assay: Inhibition of recombinant porcine calpain 2 protease using BODIPY-FL casein as substrate measured at 30 secs time interval for 30 mins by fluorescence-based assay
T3 sequence (P43367 whole entry): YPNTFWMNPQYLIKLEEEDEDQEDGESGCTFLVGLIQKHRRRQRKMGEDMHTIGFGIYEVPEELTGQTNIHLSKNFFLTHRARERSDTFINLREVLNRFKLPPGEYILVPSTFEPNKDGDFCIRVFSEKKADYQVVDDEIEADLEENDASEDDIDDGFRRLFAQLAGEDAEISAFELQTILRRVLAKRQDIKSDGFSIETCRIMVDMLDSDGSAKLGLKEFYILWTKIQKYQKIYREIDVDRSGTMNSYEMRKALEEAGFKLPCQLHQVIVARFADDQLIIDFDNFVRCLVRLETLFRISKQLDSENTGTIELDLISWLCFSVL

[7] = Inhibition of chymotrypsin like activity of rabbit 20S proteasome beta 5 subunit using Suc-LLVY-AMC as substrate preincubated for 15 mins followed by substrate addition and measured after 2 hrs by fluorescence assay; parameters: species or system Oryctolagus cuniculus
[8] = Inhibition of recombinant ovine lung calpain-2 protease using BODIPY-FL casein as substrate after 10 mins by fluorescence-based assay; parameters: species or system Ovis aries
[9] = Selectivity ratio of IC50 for chymotrypsin like activity of rabbit 20S proteasome beta 5 to IC50 for recombinant ovine lung calpain 2 protease

Row | SMILES | IC50 [1] [nM] | Ratio IC50 [2] | IC50 [3] [nM] | IC50 (Plasmodium falciparum) [nM] | IC50 [4] [nM] | Ratio IC50 (Ovis aries) | Ratio IC50 [5] | IC50 [6] [nM] | IC50 [7] [nM] | IC50 [8] [nM] | Ratio IC50 [9]
1 | C#CCOc1ccc(C[C@@H](C=O)NC(=O)[C@@H](NC(=O)[C@H](CCCCN=[N+]=[N-])NC(=O)OCc2ccccc2)[C@@H](C)CC)cc1 | – | – | – | 146 | – | – | 16 to 428 | – | 20 | 390 | 0.05
2 | CC(C)C[C@@H](C=O)NC(=O)[C@H](CC(C)C)NC(=O)[C@H](Cc1ccccc1)NC(=O)OCc1ccccc1 (Cbz-Phe-Leu-Leu-aldehyde) | 11 | 13 | 139 | 62 | 8 | > 3 | 16 to 428 | 6 | – | – | –
3 | CC(C)C[C@H](NC(=O)[C@H](Cc1ccccc1)NC(=O)OCc1ccccc1)C(=O)N[C@H](C=O)Cc1ccccc1 (Cbz-Phe-Leu-Phe-aldehyde) | 6 | 86 | 514 | 191 | 51 | > 3 | 16 to 428 | 27 | – | – | –
4 | C#CCOc1ccc(C[C@@H](C=O)NC(=O)[C@H](CC(C)C)NC(=O)[C@H](Cc2ccccc2)NC(=O)OCc2ccccc2)cc1 | 13 | 14 | 189 | 250 | 81 | > 3 | 16 to 428 | 34 | – | – | –
5 | C#CCOc1ccc(C[C@@H](C=O)NC(=O)[C@H](CC(C)C)NC(=O)[C@H](CCCCN=[N+]=[N-])NC(=O)OCc2ccccc2)cc1 | – | – | – | 561 | – | – | 16 to 428 | – | 150 | 1030 | 0.15

Further lines, results first:

Row | IC50 [1] [nM] | Ratio IC50 [2] | IC50 [3] [nM] | IC50 (Plasmodium falciparum) [nM] | IC50 [4] [nM] | Ratio IC50 (Ovis aries) | Ratio IC50 [5] | IC50 [6] [nM] | IC50 [7] [nM] | IC50 [8] [nM] | Ratio IC50 [9] | SMILES
6 | 99 | 2.7 | 269 | 213 | 40 | > 3 | 16 to 428 | 160 | – | – | – | CC(C)C[C@@H](C=O)NC(=O)[C@H](CO)NC(=O)[C@H](CC(C)C)NC(=O)OCc1ccccc1 (Cbz-Leu-Ser-Leu-aldehyde)
7 | 4400 | 0.05 | 220 | 6130 | 9800 | – | 16 to 428 | 4200 | – | – | – | CC(C)C[C@H](NC(=O)OCc1ccccc1)C(=O)N[C@@H](CC(C)C)C(=O)N[C@@H](CC(C)C)C(=O)[C@@]1(C)CO1
8 | 311 | – | – | 35 | 120 | – | – | – | – | – | – | CC(C)C[C@@H](C=O)NC(=O)[C@H](CC(C)C)NC(=O)[C@H](CC(C)C)NC(=O)OCc1ccccc1 [MG-132] (Cbz-Leu-Leu-Leu-aldehyde)
